From US20180110754A1, “CENICRIVIROC FOR THE TREATMENT OF FIBROSIS” (Tobira Therapeutics, Inc., priority 2015, published 2018)

Columns and labels:
[1] = Study 202: fasting metabolic laboratory parameters; assay type: in vivo
From the text: All abnormalities in total cholesterol, LDL cholesterol, triglycerides, or glucose were Grade 1 or Grade 2.
Mean baseline values and changes from baseline in HbA1c, HOMA-IR, fasting LDL, fasting HDL, fasting total cholesterol, fasting total cholesterol/HDL ratio, and fasting triglycerides are shown in Table 36.

[2] = Study 202: ECG abnormalities and vital signs; assay type: in vivo, human; conditions: for HR Abnormally high, n subjects / HR Abnormally low, n subjects / PR Abnormally high, n subjects / QRS Abnormally high, n subjects / QRS Abnormally low, n subjects / QTcB interval Borderline (450-480 ms), n subjects / QTcB interval Increase by >30-60 ms, n subjects / QTcB interval Increase by >60 ms, n subjects / QTcB interval Pathologically prolonged, n subjects / QTcB interval Prolonged, n subjects / QTcF interval Borderline (450-480 ms), n subjects / QTcF interval Increase by >30-60 ms, n subjects / QTcF interval Increase by >60 ms, n subjects / QTcF interval Pathologically prolonged, n subjects / QTcF interval Prolonged, n subjects: through Week 48
[3] = All CVC (N = 115), EFV (N = 28)

With `CCCCOCCOc1ccc(-c2ccc3c(c2)/C=C(/C(=O)Nc2ccc([S@@+]([O-])Cc4cncn4CCC)cc2)CCCN3CC(C)C)cc1` [CVC, (S)-8-[4-(2-Butoxyethoxy)phenyl]-1-isobutyl-N-(4-{[(1-propyl-1H-imidazol-5-yl)methyl]sulfinyl}phenyl)-1,2,3,4-tetrahydro-1-benzazocine-5-carboxamide] the “Fasting triglycerides, mean change from baseline” value ([1]; Week 4, CVC 100 mg) was -8 mg/dL, the “HOMA-IR, mean change from baseline” value ([1]; Week 4, CVC 100 mg) was 0.11 and the “HbA1c, mean change from baseline” value ([1]; Week 4, CVC 100 mg) was 0.01 % Hb. For the same compound, the “Fasting HDL, mean change from baseline” value ([1]; Week 4, CVC 200 mg) was -1.84 mg/dL, the “Fasting LDL, mean change from baseline” value ([1]; Week 4, CVC 200 mg) was -8.46 mg/dL and the “Fasting total cholesterol, mean change from baseline” value ([1]; Week 4, CVC 200 mg) was -12 mg/dL. For the same compound, the “Fasting triglycerides, mean change from baseline” value ([1]; Week 4, CVC 200 mg) was -2 mg/dL, the “HOMA-IR, mean change from baseline” value ([1]; Week 4, CVC 200 mg) was −0.71 and the “HbA1c, mean change from baseline” value ([1]; Week 4, CVC 200 mg) was −0.08 % Hb. The “Fasting HDL, mean change from baseline” value ([1]; Week 12, All CVC, EFV) was -2.09 mg/dL, the “Fasting LDL, mean change from baseline” value ([1]; Week 12, All CVC, EFV) was -11.44 mg/dL and the “Fasting total cholesterol, mean change from baseline” value ([1]; Week 12, All CVC, EFV) was -17 mg/dL. For the same compound, the “Fasting triglycerides, mean change from baseline” value ([1]; Week 12, All CVC, EFV) was -15 mg/dL, the “HOMA-IR, mean change from baseline” value ([1]; Week 12, All CVC, EFV) was −0.56 and the “HbA1c, mean change from baseline” value ([1]; Week 12, All CVC, EFV) was −0.06 % Hb. For the same compound, the “Fasting HDL, mean change from baseline” value ([1]; Week 12, CVC 100 mg) was -2.96 mg/dL, the “Fasting LDL, mean change from baseline” value ([1]; Week 12, CVC 100 mg) was -11.20 mg/dL and the “Fasting total cholesterol, mean change from baseline” value ([1]; Week 12, CVC 100 mg) was -17 mg/dL. The “Fasting triglycerides, mean change from baseline” value ([1]; Week 12, CVC 100 mg) was -16 mg/dL, the “HOMA-IR, mean change from baseline” value ([1]; Week 12, CVC 100 mg) was −0.59 and the “HbA1c, mean change from baseline” value ([1]; Week 12, CVC 100 mg) was −0.04 % Hb. For the same compound, the “Fasting HDL, mean change from baseline” value ([1]; Week 12, CVC 200 mg) was -1.22 mg/dL, the “Fasting LDL, mean change from baseline” value ([1]; Week 12, CVC 200 mg) was -11.69 mg/dL and the “Fasting total cholesterol, mean change from baseline” value ([1]; Week 12, CVC 200 mg) was -16 mg/dL. For the same compound, the “Fasting triglycerides, mean change from baseline” value ([1]; Week 12, CVC 200 mg) was -13 mg/dL, the “HOMA-IR, mean change from baseline” value ([1]; Week 12, CVC 200 mg) was −0.53 and the “HbA1c, mean change from baseline” value ([1]; Week 12, CVC 200 mg) was −0.08 % Hb. For the same compound, the “Fasting HDL, mean change from baseline” value ([1]; Week 24, All CVC, EFV) was -1.45 mg/dL, the “Fasting LDL, mean change from baseline” value ([1]; Week 24, All CVC, EFV) was -8.64 mg/dL and the “Fasting total cholesterol, mean change from baseline” value ([1]; Week 24, All CVC, EFV) was -13 mg/dL. The “Fasting triglycerides, mean change from baseline” value ([1]; Week 24, All CVC, EFV) was -15 mg/dL, the “HOMA-IR, mean change from baseline” value ([1]; Week 24, All CVC, EFV) was −0.68 and the “HbA1c, mean change from baseline” value ([1]; Week 24, All CVC, EFV) was 0.06 % Hb. The “Fasting HDL, mean change from baseline” value ([1]; Week 24, CVC 100 mg) was -2.15 mg/dL, the “Fasting LDL, mean change from baseline” value ([1]; Week 24, CVC 100 mg) was -10.21 mg/dL and the “Fasting total cholesterol, mean change from baseline” value ([1]; Week 24, CVC 100 mg) was -14 mg/dL. The “Fasting triglycerides, mean change from baseline” value ([1]; Week 24, CVC 100 mg) was -8 mg/dL, the “HOMA-IR, mean change from baseline” value ([1]; Week 24, CVC 100 mg) was −1.42 and the “HbA1c, mean change from baseline” value ([1]; Week 24, CVC 100 mg) was 0.06 % Hb. For the same compound, the “Fasting HDL, mean change from baseline” value ([1]; Week 24, CVC 200 mg) was -0.71 mg/dL, the “Fasting LDL, mean change from baseline” value ([1]; Week 24, CVC 200 mg) was -6.93 mg/dL and the “Fasting total cholesterol, mean change from baseline” value ([1]; Week 24, CVC 200 mg) was -12 mg/dL. For the same compound, the “Fasting triglycerides, mean change from baseline” value ([1]; Week 24, CVC 200 mg) was -23 mg/dL, the “HOMA-IR, mean change from baseline” value ([1]; Week 24, CVC 200 mg) was 0.15 and the “HbA1c, mean change from baseline” value ([1]; Week 24, CVC 200 mg) was 0.06 % Hb. For the same compound, the “Fasting HDL, mean change from baseline” value ([1]; Week 48, All CVC, EFV) was -0.96 mg/dL, the “Fasting LDL, mean change from baseline” value ([1]; Week 48, All CVC, EFV) was -8.49 mg/dL and the “Fasting total cholesterol, mean change from baseline” value ([1]; Week 48, All CVC, EFV) was -12 mg/dL. For the same compound, the “Fasting triglycerides, mean change from baseline” value ([1]; Week 48, All CVC, EFV) was -12 mg/dL, the “HOMA-IR, mean change from baseline” value ([1]; Week 48, All CVC, EFV) was −0.76 and the “HbA1c, mean change from baseline” value ([1]; Week 48, All CVC, EFV) was 0.10 % Hb. For the same compound, the “Fasting HDL, mean change from baseline” value ([1]; Week 48, CVC 100 mg) was -1.63 mg/dL, the “Fasting LDL, mean change from baseline” value ([1]; Week 48, CVC 100 mg) was -11.16 mg/dL and the “Fasting total cholesterol, mean change from baseline” value ([1]; Week 48, CVC 100 mg) was -14 mg/dL. The “Fasting triglycerides, mean change from baseline” value ([1]; Week 48, CVC 100 mg) was -9 mg/dL, the “HOMA-IR, mean change from baseline” value ([1]; Week 48, CVC 100 mg) was −1.56 and the “HbA1c, mean change from baseline” value ([1]; Week 48, CVC 100 mg) was 0.09 % Hb. The “Fasting HDL, mean change from baseline” value ([1]; Week 48, CVC 200 mg) was -0.21 mg/dL, the “Fasting LDL, mean change from baseline” value ([1]; Week 48, CVC 200 mg) was -5.20 mg/dL and the “Fasting total cholesterol, mean change from baseline” value ([1]; Week 48, CVC 200 mg) was -9 mg/dL. For the same compound, the “Fasting triglycerides, mean change from baseline” value ([1]; Week 48, CVC 200 mg) was -16 mg/dL, the “HOMA-IR, mean change from baseline” value ([1]; Week 48, CVC 200 mg) was 0.17 and the “HbA1c, mean change from baseline” value ([1]; Week 48, CVC 200 mg) was 0.10 % Hb. For the same compound, the “Change in fasting cholesterol (total, LDL, HDL) during treatment” value ([1]; through Week 48) was “A decrease was observed”, the “HR Abnormally high, n subjects” value [2, 3] was 0 and the “HR Abnormally low, n subjects” value [2, 3] was 0. The “PR Abnormally high, n subjects” value [2, 3] was 3, the “QRS Abnormally high, n subjects” value [2, 3] was 1 and the “QRS Abnormally low, n subjects” value [2, 3] was 0. For the same compound, the “QTcB interval Borderline (450-480 ms), n subjects” value (shortened to “QTcB interval Borderline”) [2, 3] was 6, the “QTcB interval Increase by >30-60 ms, n subjects” value [2, 3] was 9 and the “QTcB interval Increase by >60 ms, n subjects” value [2, 3] was 1. The “QTcB interval Pathologically prolonged, n subjects” value [2, 3] was 0, the “QTcB interval Prolonged, n subjects” value [2, 3] was 0 and the “QTcF interval Borderline (450-480 ms), n subjects” value (“QTcF interval Borderline” below) [2, 3] was 2. The “QTcF interval Increase by >30-60 ms, n subjects” value [2, 3] was 7, the “QTcF interval Increase by >60 ms, n subjects” value [2, 3] was 1 and the “QTcF interval Pathologically prolonged, n subjects” value [2, 3] was 0. For the same compound, the “QTcF interval Prolonged, n subjects” value [2, 3] was 0, the “HR Abnormally high, n subjects” value ([2]; CVC 100 mg (N = 58)) was 0 and the “HR Abnormally low, n subjects” value ([2]; CVC 100 mg (N = 58)) was 0. The “PR Abnormally high, n subjects” value ([2]; CVC 100 mg (N = 58)) was 2, the “QRS Abnormally high, n subjects” value ([2]; CVC 100 mg (N = 58)) was 1 and the “QRS Abnormally low, n subjects” value ([2]; CVC 100 mg (N = 58)) was 0. For the same compound, the “QTcB interval Borderline” value ([2]; CVC 100 mg (N = 58)) was 4, the “QTcB interval Increase by >30-60 ms, n subjects” value ([2]; CVC 100 mg (N = 58)) was 6 and the “QTcB interval Increase by >60 ms, n subjects” value ([2]; CVC 100 mg (N = 58)) was 1. The “QTcB interval Pathologically prolonged, n subjects” value ([2]; CVC 100 mg (N = 58)) was 0, the “QTcB interval Prolonged, n subjects” value ([2]; CVC 100 mg (N = 58)) was 0 and the “QTcF interval Borderline” value ([2]; CVC 100 mg (N = 58)) was 1. The “QTcF interval Increase by >30-60 ms, n subjects” value ([2]; CVC 100 mg (N = 58)) was 4, the “QTcF interval Increase by >60 ms, n subjects” value ([2]; CVC 100 mg (N = 58)) was 1 and the “QTcF interval Pathologically prolonged, n subjects” value ([2]; CVC 100 mg (N = 58)) was 0. For the same compound, the “QTcF interval Prolonged, n subjects” value ([2]; CVC 100 mg (N = 58)) was 0, the “Subjects with QTc increase of >60 msec” value ([2]; CVC 100 mg arm) was 1 subject and the “HR Abnormally high, n subjects” value ([2]; CVC 200 mg (N = 57)) was 0. The “HR Abnormally low, n subjects” value ([2]; CVC 200 mg (N = 57)) was 0, the “PR Abnormally high, n subjects” value ([2]; CVC 200 mg (N = 57)) was 1 (2%) and the “QRS Abnormally high, n subjects” value ([2]; CVC 200 mg (N = 57)) was 0. For the same compound, the “QRS Abnormally low, n subjects” value ([2]; CVC 200 mg (N = 57)) was 0, the “QTcB interval Borderline” value ([2]; CVC 200 mg (N = 57)) was 2 (4%) and the “QTcB interval Increase by >30-60 ms, n subjects” value ([2]; CVC 200 mg (N = 57)) was 3 (6%). For the same compound, the “QTcB interval Increase by >60 ms, n subjects” value ([2]; CVC 200 mg (N = 57)) was 0, the “QTcB interval Pathologically prolonged, n subjects” value ([2]; CVC 200 mg (N = 57)) was 0 and the “QTcB interval Prolonged, n subjects” value ([2]; CVC 200 mg (N = 57)) was 0. For the same compound, the “QTcF interval Borderline” value ([2]; CVC 200 mg (N = 57)) was 1 (2%), the “QTcF interval Increase by >30-60 ms, n subjects” value ([2]; CVC 200 mg (N = 57)) was 3 (6%) and the “QTcF interval Increase by >60 ms, n subjects” value ([2]; CVC 200 mg (N = 57)) was 0. For the same compound, the “QTcF interval Pathologically prolonged, n subjects” value ([2]; CVC 200 mg (N = 57)) was 0 and the “QTcF interval Prolonged, n subjects” value ([2]; CVC 200 mg (N = 57)) was 0.
